Where “and” joins values, the source holds several entries; their conditions need not be identical. Identical values can stand only once. Counter-ions that a name gives are not always drawn. Like-named read-outs stand apart in the source and are kept apart here.
Columns and labels:
[1] = test system: SUDHL10; test: Induction of cytotoxicity (Assay 6), SUDHL10; details: read-out: Cytotox SUDHL10 [M] (median) IC50, CellTiter-Glo, 5 hours, SUDHL10
[2] = target: SUDHL5; test: Induction of caspase-3/7 activity (Assay 4), SUDHL5; assay type: cell-based; details: caspase-3/7 induction, median
Procedure, shortened: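 DLBCL cells were exposed to compounds for 3 hours at 37 °C, then caspase-3/7 activation was read with Caspase-Glo 3/7 reagent. After subtracting medium-only background, EC50s were derived with fixed C0=1 and the reference compound's maximal induction as plateau.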

[3] = test system: HMC-1-8; test: Antiproliferation assay (Assay 7), HMC-1-8; assay type: cell-based; details: CellTiter-Glo, several values per example, read-out: Antiproli HMC-1-8 [M] IC50
Procedure, shortened: (§1)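 Plate cells in treatment and day 0 reference plates; read day 0 plate with CellTiter-Glo after 10 min; incubate treated plates 72 h at 37° C; read them identically.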

[4] = test system: AMO-1; test: Antiproliferation assay (Assay 7), AMO-1; assay type: cell-based; details: CellTiter-Glo, several values per example, read-out: Antiproli AMO-1 [M] IC50
Procedure, shortened: as §1

[5] = target: MCL-1 (Homo sapiens (Human), UniProt Q07820, K194A/K197A/R201A); test: Protein-protein interaction assay MCL-1/Noxa BH3 peptide (MCL-1 assay, TR-FRET); assay type: binding; details: MBP-MCL-1 / Noxa BH3 peptide, median
Chain of MCL-1 (Q07820 whole entry K194A/K197A/R201A, looked up): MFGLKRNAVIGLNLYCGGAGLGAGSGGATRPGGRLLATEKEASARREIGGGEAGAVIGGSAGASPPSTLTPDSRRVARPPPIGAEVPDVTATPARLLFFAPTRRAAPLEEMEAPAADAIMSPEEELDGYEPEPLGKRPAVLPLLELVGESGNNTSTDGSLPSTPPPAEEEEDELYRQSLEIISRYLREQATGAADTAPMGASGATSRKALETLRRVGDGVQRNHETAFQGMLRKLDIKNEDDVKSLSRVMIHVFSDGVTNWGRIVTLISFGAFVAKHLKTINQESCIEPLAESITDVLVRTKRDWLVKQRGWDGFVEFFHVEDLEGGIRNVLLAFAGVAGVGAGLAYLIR
Procedure, shortened: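 TR-FRET competition assay read at 665/620 nm, with a Noxa BH3 tracer peptide (1 nM) plus Eu-cryptate anti-MBP and XL665-streptavidin. Compounds (0.1 nM-20 μM, duplicates) were pre-equilibrated 10 min at 22° C with 1 nM MBP-MCL-1 (173-329) in Tris pH 7, NaCl, KF, DTT buffer, then incubated 1 h at 22° C and overnight at 4° C. IC50 came from 4-parameter regression.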

[6] = test system: SUDHL5; test: Induction of cytotoxicity (Assay 6), SUDHL5; details: read-out: Cytotox SUDHL5 [M] (median) IC50, CellTiter-Glo, 5 hours, SUDHL5
[7] = test system: SUDHL5; test: Antiproliferation assay (Assay 7), SUDHL5; assay type: cell-based; details: CellTiter-Glo, median, read-out: Antiproli SUDHL5 [M] (median) IC50
Procedure, shortened: as §1

SMILES	IC50 [1]	EC50 ([2]; 3 hours)	IC50 ([3]; 72 hours)	IC50 ([4]; 72 hours)	IC50 [5]	IC50 [6]	IC50 ([7]; 72 hours)	IC50 ([1]; Homo sapiens, SU-DHL10, 5 h)	EC50 ([2]; Homo sapiens, SU-DHL-5, 3 h)	IC50 ([3]; 72 h)	IC50 ([4]; Homo sapiens, AMO1, 72 h)	IC50 ([6]; Homo sapiens, SU-DHL-5, 5 h)	IC50 ([7]; Homo sapiens, SU-DHL-5, 72 h)
Cc1c2c(nn1C)CN(C1CC1)S(=O)(=O)CCCn1c(C(=O)O)c(CCCOc3cccc4cc(F)ccc34)c3ccc(Cl)c-2c31 (racemic) [Example 41, (rac)-4-chloro-14-cyclopropyl-7-{3-[(6-fluoro-1-naphthyl)oxy]propyl}-2,3-dimethyl-11,12,14,15-tetrahydro-2H,10H-pyrazolo[3′,4′:4,5][1,2,8]thiadiazacycloundecino[6,7,8-hi]indole-8-carboxylic acid 13,13-dioxide]	1.7e-06 M	820 nM	3.9e-06 M	8e-07 M	1.3 nM	9.7e-07 M	1.2e-06 M						
Cc1c2c(nn1C)C(CCN1CCOCC1)N(C)S(=O)(=O)CCCn1c(C(=O)O)c(CCCOc3cccc4ccccc34)c3cccc-2c31 (racemic) [Example 44, (rac)-2,3,14-trimethyl-15-[2-(rac)-(morpholin-4-yl)ethyl]-7-[3-(1-naphthyloxy)propyl]-11,12,14,15-tetrahydro-2H,10H-pyrazolo[3′,4′:4,5][1,2,8]thiadiazacycloundecino[6,7,8-hi]indole-8-carboxylic acid 13,13-dioxide (Mixture of Stereoisomers)]					3 nM			2.6e-06 M	1100 nM	1.2e-05 M	4.4e-06 M	1.3e-06 M	9.2e-07 M
Cc1c2c(nn1C)C(N1CCOCC1)CCN(C)S(=O)(=O)CCCn1c(C(=O)O)c(CCCOc3cccc4cc(F)ccc34)c3ccc(Cl)c-2c31 (racemic) [Example 47, (rac)-15-chloro-1-(3-((6-fluoronaphthalen-1-yl)oxy)propyl)-8,13,14-trimethyl-11-(rac)-morpholino-5,6,9,10,11,13-hexahydro-4H,8H-pyrazolo[3′,4′:6,7][1]thia[2,10]diazacyclotridecino[8,9,10-hi]indole-2-carboxylic acid 7,7-dioxide (Mixture of Stereoisomers)]			1.2e-05 M		0.8 nM			3.4e-07 M	220 nM	8e-06 M		3.6e-07 M	6.3e-07 M
Cc1c2c(nn1C)C(CCN1CCOCC1)N(C)S(=O)(=O)CCCn1c(C(=O)O)c(CCCOc3cccc4cc(F)ccc34)c3ccc(Cl)c-2c31 (racemic) [Example 48, (rac)-4-chloro-7-{3-[(6-fluoro-1-naphthyl)oxy]propyl}-2,3,14-trimethyl-15-(rac)-[2-(morpholin-4-yl)ethyl]-11,12,14,15-tetrahydro-2H,10H-pyrazolo[3′,4′:4,5][1,2,8]thiadiazacycloundecino[6,7,8-hi]indole-8-carboxylic acid 13,13-dioxide (Mixture of Stereoisomers)]	1.2e-08 M	13 nM	9.8e-07 M and 9.3e-07 M		0.93 nM	1.4e-08 M							3.1e-08 M
COc1ccc(CN2Cc3nn(C)c(C)c3-c3c(Cl)ccc4c(CCCOc5cccc6cc(F)ccc56)c(C(=O)O)n(c34)CCCS2(=O)=O)c(OC)c1 (racemic) [Example 49, (rac)-4-chloro-14-(2,4-dimethoxybenzyl)-7-{3-[(6-fluoro-1-naphthyl)oxy]propyl}-2,3-dimethyl-11,12,14,15-tetrahydro-2H,10H-pyrazolo[3′,4′:4,5][1,2,8]thiadiazacycloundecino[6,7,8-hi]indole-8-carboxylic acid 13,13-dioxide]			5.8e-06 M		3.2 nM			2.2e-07 M	210 nM	7.8e-06 M		1.8e-07 M	8.5e-07 M
Cc1c2c(nn1C)CNS(=O)(=O)CCCn1c(C(=O)O)c(CCCOc3cccc4cc(F)ccc34)c3ccc(Cl)c-2c31 (racemic) [Example 50, (rac)-4-chloro-7-{3-[(6-fluoro-1-naphthyl)oxy]propyl}-2,3-dimethyl-11,12,14,15-tetrahydro-2H,10H-pyrazolo[3′,4′:4,5][1,2,8]thiadiazacycloundecino[6,7,8-hi]indole-8-carboxylic acid 13,13-dioxide]					0.74 nM			3.8e-06 M	650 nM	3e-05 M		1.4e-06 M	2e-06 M
CCc1c2c(nn1C)CN(C1CC1)S(=O)(=O)CCCn1c(C(=O)O)c(CCCOc3cccc4cc(F)ccc34)c3ccc(Cl)c-2c31 (racemic) [Example 53, (rac)-4-chloro-14-cyclopropyl-3-ethyl-7-{3-[(6-fluoro-1-naphthyl)oxy]propyl}-2-methyl-11,12,14,15-tetrahydro-2H,10H-pyrazolo[3′,4′:4,5][1,2,8]thiadiazacycloundecino[6,7,8-hi]indole-8-carboxylic acid 13,13-dioxide]	9e-07 M	550 nM	5e-06 M and 6.4e-06 M and 7.7e-06 M		1.7 nM	8.1e-07 M	5.9e-07 M						
CCc1c2c(nn1C)CN(CC)S(=O)(=O)CCCn1c(C(=O)O)c(CCCOc3cccc4cc(F)ccc34)c3ccc(Cl)c-2c31 (racemic) [Example 56, (rac)-4-chloro-3,14-diethyl-7-{3-[(6-fluoro-1-naphthyl)oxy]propyl}-2-methyl-11,12,14,15-tetrahydro-2H,10H-pyrazolo[3′,4′:4,5][1,2,8]thiadiazacycloundecino[6,7,8-hi]indole-8-carboxylic acid 13,13-dioxide]			2.3e-06 M and 2.7e-06 M		2.1 nM			2.5e-07 M	200 nM	1.5e-06 M		2.8e-07 M	9.6e-08 M
CCc1c2c(nn1C)C(CCC1CCOCC1)N(C)S(=O)(=O)CCCn1c(C(=O)O)c(CCCOc3cccc4cc(F)ccc34)c3ccc(Cl)c-2c31 (racemic) [Example 59, (rac)-4-chloro-3-ethyl-7-{3-[(6-fluoro-1-naphthyl)oxy]propyl}-2,14-dimethyl-15-[2-(tetrahydro-2H-pyran-4-yl)ethyl]-11,12,14,15-tetrahydro-2H,10H-pyrazolo[3′,4′:4,5][1,2,8]thiadiazacycloundecino[6,7,8-hi]indole-8-carboxylic acid 13,13-dioxide (Racemate 2)]	1e-07 M	37 nM	6e-07 M	2.1e-07 M	1.9 nM	5.9e-08 M	5.6e-08 M						
CCc1c2c(nn1C)C(CCN1CCOCC1)N(C)S(=O)(=O)CCCn1c(C(=O)O)c(CCCOc3cccc4cc(F)ccc34)c3ccc(Cl)c-2c31 (racemic) [Example 73, (rac)-(4-chloro-3-ethyl-7-{3-[(6-fluoronaphthalen-1-yl)oxy]propyl}-2,14-dimethyl-15-[2-(morpholin-4-yl)ethyl]-13,13-dioxo-10,11,12,13,14,15-hexahydro-2H-13lambda^6-pyrazolo[3′,4′:4,5][1,2,8]thiadiazacycloundecino[6,7,8-hi]indole-8-carboxylic acid (Racemate 1)]		23 nM	1e-06 M	2.6e-08 M and 2.5e-08 M	0.34 nM		1.5e-08 M						
CCc1c2c(nn1C)CN(C1CC1)S(=O)(=O)CCCn1c(C(=O)O)c(CCCOc3cccc4cc(F)ccc34)c3ccc(Cl)c-2c31 (single isomer, unassigned; enantiomer 1) [Example 54, (−)-4-chloro-14-cyclopropyl-3-ethyl-7-{3-[(6-fluoronaphthalen-1-yl)oxy]propyl}-2-methyl-13,13-dioxo-10,11,12,13,14,15-hexahydro-2H-13lambda^6-pyrazolo[3′,4′:4,5][1,2,8]thiadiazacycloundecino[6,7,8-hi]indole-8-carboxylic acid N-ethylethanamine Salt (Enantiomer 1)]	6.5e-07 M	260 nM	2.2e-06 M and 2.5e-06 M		0.64 nM	3.6e-07 M	4.1e-07 M						
CCNCC.CCc1c2c(nn1C)C(CCN1CCOCC1)N(C)S(=O)(=O)CCCn1c(C(=O)O)c(CCCOc3cccc4cc(F)ccc34)c3ccc(Cl)c-2c31 (single isomer, unassigned; enantiomer 2) [Example 76, 4-chloro-3-ethyl-7-{3-[(6-fluoronaphthalen-1-yl)oxy]propyl}-2,14-dimethyl-15-[2-(morpholin-4-yl)ethyl]-13,13-dioxo-10,11,12,13,14,15-hexahydro-2H-13lambda^6-pyrazolo[3′,4′:4,5][1,2,8]thiadiazacycloundecino[6,7,8-hi]indole-8-carboxylic acid-N-ethylethanamine Salt (Enantiomer 2)]	8.2e-09 M	6.5 nM	3.5e-07 M and 4.1e-07 M		0.59 nM	6.7e-09 M	5.7e-09 M						

Source: patent US11401278B2, “Macrocyclic indole derivatives” (The Broad Institute, Inc., priority 2017, dated 2022)
